The values below are quoted from earlier work in paper PMC9499927, “Peptidomimetics designed to bind to RAS effector domain are promising cancer therapeutic compounds” (Scientific Reports, 2022).

Data set [1] has as its system KRAS-mutant colon and pancreatic cancer mouse models. From the text: (§1) The unclear results obtained using these experimental approaches has led the scientific community to refocus on the search for direct RAS inhibitors. With this objective, two strategies are currently being followed: the first involves searching for molecules that block the interaction with non-effector RAS proteins that bind to the HVR and/or the allosteric lobe and which modulate RAS activity; and the second is looking for drugs that inhibit the binding of RAS with its effectors[20],[21]. In this context, Rigosertib, a compound that binds to the Ras-binding domain of multiple RAS effector ...

Data set [2] has as its system Ras-binding domain of multiple RAS effectors.
Excerpt: as §1

In data set [3] the test system is patients with previously untreated metastatic pancreatic cancer. Particulars: randomized phase 2/3 trial.
Excerpt: as §1

`COc1cc(OC)c(/C=C/S(=O)(=O)Cc2ccc(OC)c(NCC(=O)O)c2)c(OC)c1` [Rigosertib]: in data set [1], the Tumour growth inhibition result is reported as “proven to inhibit tumour growth”. The Binding entry in data set [2] is “binds to the Ras-binding domain of multiple RAS effectors”. The “Clinical benefit of addition to gemcitabine” value in data set [3] is recorded as “no benefit”.
